# Legend:
# CA1 hippocampal neurons = experiment: 2-photon FRET cAMP imaging in acute brain slices; format: cell-based, mice; details: bath application 100 nM, CaMKIIα-Cre:CAMPER+/− slices
# D2R [1] = target: D2R (Homo sapiens, UniProt P14416); format: cell-based; details: D2R vs D3R
# D2R [2] = details: cited from earlier work
# D2R (Homo sapiens, UniProt P14416), sequence (P14416 whole entry): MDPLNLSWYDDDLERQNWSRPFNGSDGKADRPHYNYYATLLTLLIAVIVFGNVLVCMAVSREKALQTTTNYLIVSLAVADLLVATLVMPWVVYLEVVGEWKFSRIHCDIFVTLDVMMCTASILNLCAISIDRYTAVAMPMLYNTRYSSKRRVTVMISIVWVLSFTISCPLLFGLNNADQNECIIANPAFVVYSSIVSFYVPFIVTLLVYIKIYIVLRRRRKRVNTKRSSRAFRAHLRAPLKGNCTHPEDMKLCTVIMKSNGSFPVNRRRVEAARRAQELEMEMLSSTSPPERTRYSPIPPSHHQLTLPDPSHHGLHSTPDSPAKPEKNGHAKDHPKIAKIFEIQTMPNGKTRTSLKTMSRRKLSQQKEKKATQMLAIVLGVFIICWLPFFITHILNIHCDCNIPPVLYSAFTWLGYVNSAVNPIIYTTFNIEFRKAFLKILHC
Structure (SMILES),agonist-induced cAMP response (CA1 hippocampal neurons),activation of GoA via D2R compared to D3R (D2R [1]),affinity for D2R over D3R (D2R [2]) [fold]
COc1ccc(OCCN2CCN(C(=O)c3cc4ccccc4[nH]3)CC2)cc1 [ML417],increase in cAMP production,–,–
CN[C@@H]1Cc2cccc3[nH]c(=O)n(c23)C1 [sumanirole],robust inhibition of cAMP,five,200

# — PMC12363792 (bioRxiv, 2025)
